Earlier results as cited in patent publication US20040253692A1, “Streptomyces sp. CJPV975652 capable of converting compactin to pravastatin and method for producing pravastatin using the same” (priority 2003, published 2004).

Key:
[1] = biological target: T1, HMG-CoA reductase (Homo sapiens, UniProt P04035); conditions: compared with compactin
T1 sequence (P04035 1-888): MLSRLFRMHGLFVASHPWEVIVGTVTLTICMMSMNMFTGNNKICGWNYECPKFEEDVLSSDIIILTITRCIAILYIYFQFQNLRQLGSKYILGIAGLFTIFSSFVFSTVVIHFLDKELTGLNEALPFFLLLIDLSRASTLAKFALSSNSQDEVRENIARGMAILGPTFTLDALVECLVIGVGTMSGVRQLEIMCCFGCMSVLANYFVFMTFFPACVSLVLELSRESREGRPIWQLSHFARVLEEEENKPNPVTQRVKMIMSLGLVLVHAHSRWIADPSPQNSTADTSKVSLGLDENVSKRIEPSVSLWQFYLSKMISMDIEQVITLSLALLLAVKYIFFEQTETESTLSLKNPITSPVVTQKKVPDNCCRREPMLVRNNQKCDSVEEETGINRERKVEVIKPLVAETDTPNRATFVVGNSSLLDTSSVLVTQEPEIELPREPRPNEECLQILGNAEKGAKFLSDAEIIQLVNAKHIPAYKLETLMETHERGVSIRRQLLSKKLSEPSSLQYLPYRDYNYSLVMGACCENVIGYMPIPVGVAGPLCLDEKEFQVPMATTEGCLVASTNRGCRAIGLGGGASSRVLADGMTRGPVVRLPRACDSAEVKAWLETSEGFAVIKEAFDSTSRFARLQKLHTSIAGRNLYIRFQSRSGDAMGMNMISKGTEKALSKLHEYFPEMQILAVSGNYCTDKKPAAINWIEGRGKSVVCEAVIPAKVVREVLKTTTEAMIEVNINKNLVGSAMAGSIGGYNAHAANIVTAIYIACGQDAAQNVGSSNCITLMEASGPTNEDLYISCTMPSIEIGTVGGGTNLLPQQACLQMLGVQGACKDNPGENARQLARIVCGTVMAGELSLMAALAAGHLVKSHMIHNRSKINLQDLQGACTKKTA

[2] = daily dosage of 5-10 mg for 3 months

## CC[C@H](C)C(=O)O[C@H]1C[C@H](O)C=C2C=C[C@H](C)[C@H](CC[C@@H](O)C[C@@H](O)CC(=O)O)[C@H]21 [pravastatin]
[1]
  effectiveness as a HMG-CoA reductase inhibitor: more effective than compactin
[2]
  reduction of LDL-cholesterol level: 20-40%
  reduction of total cholesterol level: 20-40%
